Measured values reported in US20160052926A1, “NOVEL PYRIMIDINE AND PYRIDINE COMPOUNDS AND USAGE THEREOF” (HUTCHISON MEDIPHARMA LIMITED, priority 2013, published 2016).

How the values were obtained:
Recombinant human FGFR1 = Recombinant human FGFR1 (Homo sapiens, UniProt P11362); assay: Transcreener Kinase Assay of FGFR1; type: biochemical; conditions: read-out: FGFR1 (FP) IC50
Recombinant human FGFR2 = Recombinant human FGFR2 (Homo sapiens, UniProt P21802); assay: Transcreener Kinase Assay of FGFR2; type: biochemical; conditions: read-out: FGFR2 (FP) IC50
Sequence of Recombinant human FGFR2 (P21802 22-821): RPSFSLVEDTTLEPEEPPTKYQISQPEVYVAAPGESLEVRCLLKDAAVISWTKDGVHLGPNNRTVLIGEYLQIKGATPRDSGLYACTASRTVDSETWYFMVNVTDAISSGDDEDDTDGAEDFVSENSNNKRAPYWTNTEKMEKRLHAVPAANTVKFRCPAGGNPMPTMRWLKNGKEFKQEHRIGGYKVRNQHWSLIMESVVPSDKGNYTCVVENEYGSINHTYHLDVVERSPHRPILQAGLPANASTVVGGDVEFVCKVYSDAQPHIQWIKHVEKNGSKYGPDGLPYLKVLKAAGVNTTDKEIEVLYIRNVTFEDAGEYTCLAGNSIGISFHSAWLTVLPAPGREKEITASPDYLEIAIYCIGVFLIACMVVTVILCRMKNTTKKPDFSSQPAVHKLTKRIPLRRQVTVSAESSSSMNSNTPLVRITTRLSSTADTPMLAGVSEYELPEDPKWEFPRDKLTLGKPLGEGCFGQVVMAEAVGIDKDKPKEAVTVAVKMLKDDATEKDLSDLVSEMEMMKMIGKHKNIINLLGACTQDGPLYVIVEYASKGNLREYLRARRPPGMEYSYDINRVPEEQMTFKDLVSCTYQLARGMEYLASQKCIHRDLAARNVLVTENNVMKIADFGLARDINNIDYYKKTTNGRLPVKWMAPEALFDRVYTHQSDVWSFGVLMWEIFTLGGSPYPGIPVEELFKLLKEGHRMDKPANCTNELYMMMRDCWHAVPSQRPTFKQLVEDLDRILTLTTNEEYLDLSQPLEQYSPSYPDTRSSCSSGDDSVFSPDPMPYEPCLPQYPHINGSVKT

FGFR3 kinase = FGFR3 kinase (Homo sapiens, UniProt P22607); assay: Z-Lyte Kinase Assay of FGFR3; type: biochemical
Sequence of FGFR3 kinase (P22607 23-806): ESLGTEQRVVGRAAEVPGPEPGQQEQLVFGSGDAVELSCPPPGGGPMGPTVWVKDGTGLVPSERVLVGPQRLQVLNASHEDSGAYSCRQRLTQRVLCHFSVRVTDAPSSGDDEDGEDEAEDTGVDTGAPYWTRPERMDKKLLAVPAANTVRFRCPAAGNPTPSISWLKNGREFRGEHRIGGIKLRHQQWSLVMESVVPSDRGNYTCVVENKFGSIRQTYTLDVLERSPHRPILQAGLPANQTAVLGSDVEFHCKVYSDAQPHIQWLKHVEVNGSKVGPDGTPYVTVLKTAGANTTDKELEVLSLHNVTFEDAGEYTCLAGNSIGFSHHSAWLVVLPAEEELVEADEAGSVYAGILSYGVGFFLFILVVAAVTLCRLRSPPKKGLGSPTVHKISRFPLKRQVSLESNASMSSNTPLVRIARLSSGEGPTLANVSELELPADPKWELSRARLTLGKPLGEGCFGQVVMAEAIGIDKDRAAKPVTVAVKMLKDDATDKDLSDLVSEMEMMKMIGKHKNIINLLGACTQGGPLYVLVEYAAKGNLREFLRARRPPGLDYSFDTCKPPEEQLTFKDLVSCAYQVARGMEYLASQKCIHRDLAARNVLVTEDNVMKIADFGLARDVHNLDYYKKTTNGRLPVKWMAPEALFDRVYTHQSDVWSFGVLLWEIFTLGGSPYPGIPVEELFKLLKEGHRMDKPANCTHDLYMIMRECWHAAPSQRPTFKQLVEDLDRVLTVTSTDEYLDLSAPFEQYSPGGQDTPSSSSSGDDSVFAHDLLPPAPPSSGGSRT
Procedure, shortened: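 Kinase at 0.7 μg/ml with 4 μM Z-LYTE Tyr 4 peptide and ATP diluted to 300 uM (working solution, 1.33× buffer); compounds 1–0.00046 μM, 2% DMSO final. Kinase reaction and development each 1 h at RT (25-30[…]); coumarin (445 nm) and fluorescein (520 nm) emission read, inhibition from % phosphorylation.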

KG-1 = assay: Cellular Proliferation Assay (Cell Counting Kit-8), KG-1; type: cell-based; conditions: Homo sapiens, KG1 cells, 72 hours
Procedure, shortened: (§1)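 Seeding was 30,000 (KG-1), 5,000 (SNU-16) or 1,000 (RT-112) cells per well, with compound added 24 h later. Dilutions were prepared as an 8-point series of 10 to 0.004 μM in 5% DMSO, before addition to wells.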

SNU-16 = assay: Cellular Proliferation Assay (Cell Counting Kit-8), SNU-16; type: cell-based; conditions: Homo sapiens, SNU-16 cells, 72 hours
Procedure, shortened: as §1

RT-112 = assay: Cellular Proliferation Assay (Cell Counting Kit-8), RT-112; type: cell-based; conditions: Homo sapiens, RT-112 cells, 72 hours
Procedure, shortened: as §1

Sequence of Recombinant human FGFR1 (P11362 22-822): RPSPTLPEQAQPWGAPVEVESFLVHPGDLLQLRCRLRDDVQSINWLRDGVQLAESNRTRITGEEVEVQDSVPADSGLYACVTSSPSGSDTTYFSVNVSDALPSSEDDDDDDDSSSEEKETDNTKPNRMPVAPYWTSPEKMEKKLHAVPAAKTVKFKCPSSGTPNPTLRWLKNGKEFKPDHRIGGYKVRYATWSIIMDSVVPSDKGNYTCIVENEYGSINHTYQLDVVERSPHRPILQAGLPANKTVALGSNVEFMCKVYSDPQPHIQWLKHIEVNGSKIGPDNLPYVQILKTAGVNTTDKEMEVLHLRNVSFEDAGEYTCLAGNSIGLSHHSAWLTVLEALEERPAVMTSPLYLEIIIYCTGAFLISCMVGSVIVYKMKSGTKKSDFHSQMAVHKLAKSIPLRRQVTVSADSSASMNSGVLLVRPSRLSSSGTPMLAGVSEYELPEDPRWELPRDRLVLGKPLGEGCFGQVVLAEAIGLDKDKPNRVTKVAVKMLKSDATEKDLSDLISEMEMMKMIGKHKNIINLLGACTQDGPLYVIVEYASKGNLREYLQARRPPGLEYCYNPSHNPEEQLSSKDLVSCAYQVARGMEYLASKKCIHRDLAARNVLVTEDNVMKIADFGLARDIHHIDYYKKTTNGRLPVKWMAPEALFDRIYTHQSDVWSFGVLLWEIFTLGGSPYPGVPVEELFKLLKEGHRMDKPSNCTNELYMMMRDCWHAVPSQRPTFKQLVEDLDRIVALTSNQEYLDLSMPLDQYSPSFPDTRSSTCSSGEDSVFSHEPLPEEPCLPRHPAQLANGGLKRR

Structure (SMILES) | IC50 (Recombinant human FGFR1) [nM] | IC50 (Recombinant human FGFR2) [nM] | IC50 (FGFR3 kinase) [nM] | IC50 (KG-1) [nM] | IC50 (SNU-16) [nM] | IC50 (RT-112) [nM]
CNC(=O)c1cc(CCc2cnc(Nc3ccc(N4CCNC(C)(C)C4)cc3)nc2)c(Cl)c(OC)c1 [Compound 200] | 9 | 6 | 6 | 91 | 20 | 34
CNC(=O)c1cc(COc2cnc(Nc3ccc(N4C[C@@H](C)N[C@@H](C)C4)nc3)nc2)c(F)c(OC)c1 [Compound 201] | 29 | 12 | 19 | 1100 | 19 | 66
CCn1cc(Nc2ncc(OCc3c(F)c(OC)cc(C(=O)NC)c3F)cn2)cn1 [Compound 203] | 11 | 8 | 14 | 11 | 23 | 37
CNC(=O)c1cc(CCc2cnc(Nc3ccc(N4C[C@@H](C)N[C@@H](C)C4)c(F)c3)nc2)c(Cl)c(OC)c1 [Compound 204] | 9 | 5 | 8 | 18 | 7 | 15
CCNC(=O)c1cc(COc2cnc(Nc3ccc(N4C[C@@H](C)N[C@@H](C)C4)cc3)nc2)c(F)c(OC)c1 [Compound 205] | 36 | 25 | 28 | 68 | 37 | 97
CNC(=O)c1cc(CCc2cnc(Nc3ccc(N4C[C@@H](C)N[C@@H](C)C4)c(C)c3)nc2)c(Cl)c(OC)c1 [Compound 208] | 10 | 5 | 9 | 60 | 17 | 21
CNC(=O)c1cc(COc2cnc(Nc3ccc(N4C[C@@H](C)N[C@@H](C)C4)c(C)c3)nc2)c(Cl)c(OC)c1 [Compound 209] | 7 | 6 | 7 | 13 | 8 | 16
CNC(=O)c1cc(COc2cnc(Nc3ccc(O)cc3)nc2)c(F)c(OC)c1 [Compound 211] | 18 | 9 | 21 | 84 | 53 | 163
